From publication PMC11579929, “Proline-Modified RWn Peptides: Enhanced Antifungal Efficacy and Synergy with Conventional Antibiotics for Combating Resistant Fungal Infections” (ACS Omega, 2024)
Values after ≈ are worked out from the molar mass of the structure shown. Where two headings read alike, the source gives them in different places. Where no end group is shown, it is not given here.

Key:
human red blood cells = experiment: Hemolytic activity; format: cell-based; details: for Hemolytic Toxicity (<32 mg/mL): yes/no below as printed
Method: (§1) The antifungal activities were evaluated by determining the minimum inhibitory concentration (MIC) against C. albicans [ATCC 90028] and C. neoformans [ATCC 208821] that inhibits 99% fungal growth. Cytotoxicity and hemolytic activities were assessed against human embryonic kidney (HEK293) cells and human red blood cells, respectively. The antimicrobial screening was performed by The Community for Antimicrobial Drug Discovery (CO-ADD).[31]

Cytotoxicity assay = format: cell-based; details: human, HEK293 cells
Method: as §1, with “(CO-ADD).[31] Cytotoxicity assays were performed on active compounds to assess their selectivity toward microbial cells. The protocol for the cytotoxicity assay is described in the Supporting Information.[28]” for “(CO-ADD).[31]”

C. albicans [ATCC 90028] = experiment: microbe, parasite or virus in culture; format: cell-based, Candida albicans; details: for MIC: Candida albicans
[1] = tested on: C. neoformans [ATCC 208821]; experiment: microbe, parasite or virus in culture; format: cell-based, Cryptococcus neoformans; details: for MIC: Cryptococcus neoformans
HEK293 and RBC = experiment: Toxicity (HEK293 and RBC), stated jointly; format: cell-based, human
Method: as §1, with “(CO-ADD).[31] Cytotoxicity assays were performed on active compounds to assess their selectivity toward microbial cells. The protocol for the cytotoxicity assay is described in the Supporting Information.[28]” for “(CO-ADD).[31]”

| Molecule | Hemolytic Activity (human red blood cells; Table 3, unit not given) | CC50 (Cytotoxicity assay) [µg/mL] | C. albicans MIC (C. albicans [ATCC 90028]; ATCC 90028, 3 h) [µg/mL] | Hemolytic Activity (human red blood cells; Table 2, human red blood cells) [µg/mL] | Hemolytic Toxicity (<32 mg/mL) (human red blood cells) | also measured |
| --- | --- | --- | --- | --- | --- | --- |
| RWRWRWRWPRWRWRWRW-NH2 [RW8P] | >32 | > 32 | >32 |  |  | C. neoformans MIC ([1]; ATCC 208821, 3 h): ≤0.25 µg/mL |
| N=C(N)NCCC[C@H](NC(=O)[C@H](Cc1c[nH]c2ccccc12)NC(=O)[C@H](CCCNC(=N)N)NC(=O)[C@H](Cc1c[nH]c2ccccc12)NC(=O)[C@H](CCCNC(=N)N)NC(=O)[C@H](Cc1c[nH]c2ccccc12)NC(=O)[C@H](CCCNC(=N)N)NC(=O)[C@H](Cc1c[nH]c2ccccc12)NC(=O)[C@H](CCCNC(=N)N)NC(=O)[C@H](Cc1c[nH]c2ccccc12)NC(=O)[C@@H](N)CCCNC(=N)N)C(=O)N[C@@H](Cc1c[nH]c2ccccc12)C(N)=O [RW6, (RW)6-NH2] |  | > 32 | 8 | ≤0.25 | Yes |  |
| RWRWRWRW-NH2 [RW4, (RW)4-NH2] |  | > 32 |  | >32 | No |  |
| CN[C@H](CC(C)C)C(=O)N[C@H]1C(=O)N[C@@H](CC(N)=O)C(=O)N[C@H]2C(=O)N[C@H]3C(=O)N[C@H](C(=O)N[C@H](C(=O)O)c4cc(O)cc(O)c4-c4cc3ccc4O)[C@H](O)c3ccc(c(Cl)c3)Oc3cc2cc(c3O[C@@H]2O[C@H](CO)[C@@H](O)[C@H](O)[C@H]2O[C@H]2C[C@](C)(N)[C@H](O)[C@H](C)O2)Oc2ccc(cc2Cl)[C@H]1O [VAN, vancomycin, reference compound] |  |  |  |  |  | MIC (C. albicans [ATCC 90028]; ATCC90028, read-out: C. albicans MIC): > 32 µg/mL; MIC ([1]; ATCC208821, read-out: C. neoformans MIC): > 32 µg/mL |
| CC[C@H](C)[C@H](N)C(=O)N[C@@H](CC(C)C)C(=O)N1CCC[C@H]1C(=O)N[C@@H](Cc1c[nH]c2ccccc12)C(=O)N[C@@H](CCCCN)C(=O)N[C@@H](Cc1c[nH]c2ccccc12)C(=O)N1CCC[C@H]1C(=O)N[C@@H](Cc1c[nH]c2ccccc12)C(=O)N[C@@H](Cc1c[nH]c2ccccc12)C(=O)N1CCC[C@H]1C(=O)N[C@@H](Cc1c[nH]c2ccccc12)C(=O)N[C@@H](CCCNC(=N)N)C(=O)N[C@@H](CCCNC(=N)N)C(N)=O [Indolicidin, reference compound] |  |  |  | >32 | No | CC50 (Cytotoxicity assay; Table 2, read-out: HEK293 Toxicity): > 32 µg/mL; C. albicans MIC (C. albicans [ATCC 90028]; ATCC 90028, concentration that inhibits 99% fungal growth, peptide alone): >32 µg/mL; C. neoformans MIC ([1]; ATCC 208821, concentration that inhibits 99% fungal growth, peptide alone): >32 µg/mL |
| RWRWPRWRWPRWRW-NH2 [RW6–2P] | >32 | > 32 |  |  |  | Toxicity in HEK293 or red blood cells (in words) (HEK293 and RBC): without any detectable toxicity |
| RWRWPRWRW-NH2 [RW4P] | >32 | > 32 | >32 |  |  | C. neoformans MIC ([1]; ATCC 208821, 3 h): ≤0.25 µg/mL |
| OC(Cn1cncn1)(Cn1cncn1)c1ccc(F)cc1F [Fluconazole, reference compound] |  |  |  |  |  | MIC (C. albicans [ATCC 90028]; ATCC90028, BMD method, YNB, 384 NBS plates, average of ≥ 6 independent biological replicates, antifungal standard, read-out: MIC Candida albicans ATCC 90028): 0.125 µg/mL (≈ 0.408 µM); MIC ([1]; ATCC208821, BMD method, YNB, 384 NBS plates, average of ≥ 6 independent biological replicates, antifungal standard, read-out: MIC Cryptococcus neoformans H99 ATCC 208821): 8 µg/mL (≈ 26.1 µM) |
| RWRWRWRWRWRWRWRW-NH2 [RW8, (RW)8-NH2] |  | > 32 | 32 | 0.452 | Yes | C. neoformans MIC ([1]; ATCC 208821, 3 h): 0.5 µg/mL |
| RWRWRWPRWRWRW-NH2 [RW6P] | >32 | > 32 |  |  |  | Toxicity in HEK293 or red blood cells (in words) (HEK293 and RBC): without observable toxicity |
| CC1(C)S[C@@H]2[C@H](NC(=O)[C@H](N)c3ccccc3)C(=O)N2[C@H]1C(=O)O [AMP, ampicillin, reference compound] |  |  |  |  |  | MIC (C. albicans [ATCC 90028]; ATCC90028, antibiotic alone or 4.75 mg antibiotic mixed with 0.25 mg of peptide, read-out: C. albicans MIC): > 32 µg/mL; MIC ([1]; ATCC208821, antibiotic alone or 4.75 mg antibiotic mixed with 0.25 mg of peptide, read-out: C. neoformans MIC): > 32 µg/mL |
